Results from PMC6792352, “Limited Chemical Structural Diversity Found to Modulate Thyroid Hormone Receptor in the Tox21 Chemical Library” (Environmental Health Perspectives, 2019).
Counter-ions that a name gives are not always drawn.

Assay: in vitro
Conditions: rat, gh3-tre-luc cells, AC50 (uM) modified / 1000
Clc1ccc(C(Cl)(Cl)Cl)cc1Cl [1,2-Dichloro-4-(trichloromethyl)benzene] gave a CC50 at 24 h of over 90 µM.
Compound C=C1C[C@H]2[C@@H]3C=C(C)C4=CC(=O)CC[C@]4(C)[C@H]3CC[C@]2(C)[C@@]1(OC(C)=O)C(C)=O [Melengestrol acetate] has a CC50 at 24 h of over 60 µM.
For CC(=O)OC(C)(C)C [tert-Butyl acetate], the CC50 at 24 h was over 90 µM.
With CC(=O)c1ccc([N+](=O)[O-])cc1 [4-Nitroacetophenone] the CC50 at 24 h was over 90 µM.
C/C=C(C)/C=C/C=C(C)C [2,6-Dimethyl-2,4,6-octatriene] showed a CC50 at 24 h of over 90 µM.
CCc1ccc(O)c(C(C)(C)C)c1 [2-tert-Butyl-4-ethylphenol] gave a CC50 at 24 h of 62.1 µM.
Compound NC(=O)[C@@H]1CCCN1C(=O)[C@H](Cc1cnc[nH]1)NC(=O)[C@@H]1CCC(=O)N1 [Protirelin] has a CC50 at 24 h of over 50 µM.
Work on C=CC(=O)OCC(C)OCC(C)OCC(C)OC(=O)C=C (centres unmarked) [Tripropylene glycol diacrylate] yielded a CC50 at 24 h of 36.2 µM.
C[C@@H]1O[C@@H]1P(=O)(O)O [Fosfomycin calcium] showed a CC50 at 24 h of over 50 µM.
With N#Cc1c[nH]cc1-c1cccc2c1OC(F)(F)O2 [Fludioxonil] the CC50 at 24 h was 35.9 µM.
Compound Nc1nc(=O)[nH]cc1F [Flucytosine] has a CC50 at 24 h of over 20 µM.
COCC(O)CO (centres unmarked) [1-O-Methylglycerol] showed a CC50 at 24 h of over 100 µM.
Compound CCOC(=O)[C@H](CCc1ccccc1)N[C@H]1CS[C@H](c2cccs2)CN(CC(=O)O)C1=O [Temocapril hydrochloride] has a CC50 at 24 h of over 50 µM.
Compound C[C@]12CCC(=O)C=C1CC[C@@H]1[C@@H]2[C@@H](O)C[C@@]2(C)[C@H]1CC[C@]2(O)C(=O)COP(=O)(O)O [Hydrocortisone sodium phosphate] has a CC50 at 24 h of over 50 µM.
For COc1ccccc1OCCNCC(O)COc1cccc2[nH]c3ccccc3c12 (centres unmarked) [Carvedilol tartrate], the CC50 at 24 h was 24 µM.
With CCCCCCCCOC(=O)c1ccc(C(=O)OCCCCCCCC)c(C(=O)OCCCCCCCC)c1 [Trioctyl trimellitate] the CC50 at 24 h was over 90 µM.
For CC(=O)C=Cc1ccco1 [Furfural acetone], the CC50 at 24 h was over 100 µM.
For O=C1/C(=C/c2cccs2)CCC/C1=C\c1cccs1 [Tenylidone], the CC50 at 24 h was over 50 µM.
In the case of Oc1ccc(-c2ccccc2)cc1Cl [2-Chloro-4-phenylphenol], the CC50 at 24 h is reported as 81 µM.
With COc1ccccc1OCC(O)CN1CCN(CC(=O)Nc2c(C)cccc2C)CC1 (centres unmarked) [Ranolazine] the CC50 at 24 h was over 50 µM.
With CN1C(=O)CN2CCc3ccccc3C2c2cc(Cl)ccc21 (centres unmarked) [Clazolam] the CC50 at 24 h was over 50 µM.
Work on CC1(C)[C@@H]2CC[C@@]1(C)C(=O)C2 [D-Camphor] yielded a CC50 at 24 h of over 90 µM.
Compound NC(=O)c1ccncc1 [Isonicotinamide] has a CC50 at 24 h of over 100 µM.
Compound CC(=O)C1(C)CC2=C(CCCC2(C)C)CC1C (centres unmarked) [Isocyclemone E] has a CC50 at 24 h of over 90 µM.
Work on C=C[C@H]1C[N@@]2CC[C@H]1C[C@@H]2[C@@H](O)c1ccnc2ccc(OC)cc12 [Quinidine] yielded a CC50 at 24 h of 85.2 µM.
Work on OCC1CCCO1 (centres unmarked) [Tetrahydrofurfuryl alcohol] yielded a CC50 at 24 h of over 90 µM.
CCOc1ccc(NS(=O)(=O)c2ccc(N)cc2)nn1 [Sulfaethoxypyridazine] gave a CC50 at 24 h of over 50 µM.
In the case of CCCCCC/C=C/CCCCCCCC(=O)O [(E)-Hexadec-9-enoic acid], the CC50 at 24 h is reported as over 90 µM.
O=NN1CCN(N=O)CC1 [Dinitrosopiperazine] gave a CC50 at 24 h of over 90 µM.
With O=C(O)CCCCC1CCSS1 (stereo not drawn) [alpha-Lipoic acid] the CC50 at 24 h was over 90 µM.
In the case of Cc1ccc(=O)n(-c2ccccc2)c1 [Pirfenidone], the CC50 at 24 h is reported as over 50 µM.
C=C(C)C(=O)OCC(C)C [Isobutyl methacrylate] showed a CC50 at 24 h of over 90 µM.
CN1CCCC(n2nc(Cc3ccc(Cl)cc3)c3ccccc3c2=O)CC1 (centres unmarked) [Azelastine hydrochloride] gave a CC50 at 24 h of 12.6 µM.
Work on CCOc1cccc(C2(N3CCN(c4ccccc4)CC3)CCC(C)CC2)c1 (centres unmarked) [CP-422935] yielded a CC50 at 24 h of over 90 µM.
With CO/N=C(\C(=O)N[C@@H]1C(=O)N2C(C(=O)O)=C(CSc3nnnn3C)CS[C@H]12)c1csc(N)n1 [Cefmenoxime hydrochloride] the CC50 at 24 h was over 50 µM.
CC1(C)[C@H]2CC[C@]1(C)C(=O)C2=O [(+)Camphorquinone] gave a CC50 at 24 h of over 90 µM.
Work on CC(=O)N[C@H]1[C@H]([C@H](O)[C@H](O)CO)OC(C(=O)O)=C[C@@H]1N=C(N)N [Zanamivir] yielded a CC50 at 24 h of over 50 µM.
Oc1ccc(O)c2c(O)cccc12 [1,4,5-Trihydroxynaphthalene] showed a CC50 at 24 h of over 90 µM.
Work on Cc1cc(C)c(C(=O)P(=O)(C(=O)c2c(C)cc(C)cc2C)c2ccccc2)c(C)c1 [(Phenylphosphoryl)bis[(2,4,6-trimethylphenyl)methanone]] yielded a CC50 at 24 h of over 90 µM.
Compound CO/N=C(\C(=O)N[C@@H]1C(=O)N2C(C(=O)O)=C(COC(N)=O)CS[C@H]12)c1ccco1 [Cefuroxime] has a CC50 at 24 h of over 90 µM.
Work on CC(C)C(=O)c1ccccc1 [Isopropyl phenyl ketone] yielded a CC50 at 24 h of over 90 µM.
Work on CCCCCCCC/C=C\CCCCCCCC(N)=O [(9Z)-Octadec-9-enamide] yielded a CC50 at 24 h of over 90 µM.
Work on C#C[C@]1(O)CC[C@H]2[C@@H]3CCC4=Cc5oncc5C[C@]4(C)[C@H]3CC[C@@]21C [Danazol] yielded a CC50 at 24 h of 57.4 µM.
O=C(O)C1C(C(=O)O)[C@@]2(Cl)C(Cl)=C(Cl)[C@]1(Cl)C2(Cl)Cl (some centres unmarked) [Chlorendic acid] gave a CC50 at 24 h of over 90 µM.
CC(=O)OC(C)(C)Cc1ccccc1 [Dimethylbenzylcarbinyl acetate] gave a CC50 at 24 h of over 90 µM.
With CC(C)(O)c1ccc(CNC(=O)c2cccnc2Oc2ccc3nonc3c2)cc1 [CP-612372] the CC50 at 24 h was over 90 µM.
In the case of CC[N+](CC)(CC)CCOc1ccc(/C=C/c2ccccc2)cc1 [Stilonium iodide], the CC50 at 24 h is reported as over 50 µM.
In the case of CCCCC(CC)COCCC#N (centres unmarked) [3-((2-Ethylhexyl)oxy)propionitrile], the CC50 at 24 h is reported as over 90 µM.
Work on CC(C)(C)C1CCC(=O)CC1 [4-tert-Butylcyclohexanone] yielded a CC50 at 24 h of over 90 µM.
CC1=C(CC(=O)O)c2cc(F)ccc2/C1=C\c1ccc([S+](C)[O-])cc1 (centres unmarked) [Sulindac] showed a CC50 at 24 h of over 90 µM.
For CC(O)CC(C)(C)O (centres unmarked) [2-Methyl-2,4-pentanediol], the CC50 at 24 h was over 90 µM.
In the case of Nc1ccc([N+](=O)[O-])cc1 [4-Nitroaniline], the CC50 at 24 h is reported as over 90 µM.
In the case of O=C1CC2CC1C1CCCC21 (centres unmarked) [Corodane], the CC50 at 24 h is reported as over 90 µM.
In the case of N=C(N)N/N=C/c1c(Cl)cccc1Cl [Guanabenz], the CC50 at 24 h is reported as 20.8 µM.
CCO[Si](C)(CCCOCC1CO1)OCC (centres unmarked) [Diethoxy(methyl)[3-(oxiran-2-ylmethoxy)propyl]silane] showed a CC50 at 24 h of over 90 µM.
Work on CN(C(=O)c1c(O)c2ccccc2n(C)c1=O)c1ccccc1 [Roquinimex] yielded a CC50 at 24 h of over 50 µM.
Compound CCCCCCCCCCOCC(O)CN (centres unmarked) [Decominol hydrochloride] has a CC50 at 24 h of 6.25 µM.
Compound COc1ccc(OC)c(OC)c1 [1,2,4-Trimethoxybenzene] has a CC50 at 24 h of over 90 µM.
Compound CS(=O)(=O)CCNCc1ccc(-c2ccc3ncnc(Nc4ccc(OCc5cccc(F)c5)c(Cl)c4)c3c2)o1 [Lapatinib] has a CC50 at 24 h of over 50 µM.
With CC(=O)S[C@H](C(=O)N[C@H]1Cc2ccccc2[C@H]2CCC[C@@H](C(=O)O)N2C1=O)C(C)C [Ilepatril] the CC50 at 24 h was over 90 µM.

Same assay, conditions: rat, gh3-tre-luc cells, AC50 (uM) modified / 1000, Tox21_110001=Tox21_111290; viability, 1 nM T3 present, 24 h
Work on CCOP(=S)(OCC)Oc1ccc2c(C)c(Cl)c(=O)oc2c1 [Coumaphos] yielded a CC50 at 24 h of over 50 µM.

Same assay, conditions: rat, gh3-tre-luc cells, AC50 (uM) modified / 1000, Tox21_110001=Tox21_111802; viability, 1 nM T3 present, 24 h
O=C(CCl)c1ccc(Oc2ccc(C(=O)CCl)cc2)cc1 [Clofenoxyde] showed a CC50 at 24 h of over 50 µM.

Same assay, conditions: rat, gh3-tre-luc cells, AC50 (uM) modified / 1000, Tox21_110001=Tox21_112426; viability, 1 nM T3 present, 24 h
In the case of FC(F)OC(F)(F)C(F)Cl (centres unmarked) [Enflurane], the CC50 at 24 h is reported as over 50 µM.

Same assay, conditions: rat, gh3-tre-luc cells, AC50 (uM) modified / 1000, Tox21_110001=Tox21_113042; viability, 1 nM T3 present, 24 h
Compound O=C(O)Cc1ccccc1 [Phenylacetic acid] has a CC50 at 24 h of over 50 µM.

Same assay, conditions: rat, gh3-tre-luc cells, AC50 (uM) modified / 1000, Tox21_110001=Tox21_113357; viability, 1 nM T3 present, 24 h
Work on CCOP(=S)(OCC)O/N=C(\C#N)c1ccccc1 [Phoxim] yielded a CC50 at 24 h of over 50 µM.

Same assay, conditions: rat, gh3-tre-luc cells, AC50 (uM) modified / 1000, Tox21_110001=Tox21_200166; viability, 1 nM T3 present, 24 h
With FC(F)OC(F)(F)C(F)Cl (centres unmarked) [Enflurane] the CC50 at 24 h was over 90 µM.

Same assay, conditions: rat, gh3-tre-luc cells, AC50 (uM) modified / 1000, Tox21_110001=Tox21_200533; viability, 1 nM T3 present, 24 h
In the case of O=C(O)Cc1ccccc1 [Phenylacetic acid], the CC50 at 24 h is reported as over 90 µM.

Same assay, conditions: rat, gh3-tre-luc cells, AC50 (uM) modified / 1000, Tox21_110001=Tox21_200633; viability, 1 nM T3 present, 24 h
Compound CCC(C)Br (centres unmarked) [2-Bromobutane] has a CC50 at 24 h of over 100 µM.

Same assay, conditions: rat, gh3-tre-luc cells, AC50 (uM) modified / 1000, Tox21_110001=Tox21_200910; viability, 1 nM T3 present, 24 h
For Oc1c(Cl)c(Cl)cc(Cl)c1Cl [2,3,5,6-Tetrachlorophenol], the CC50 at 24 h was 65.8 µM.

Same assay, conditions: rat, gh3-tre-luc cells, AC50 (uM) modified / 1000, Tox21_110001=Tox21_200976; viability, 1 nM T3 present, 24 h
With C#CCO [Propargyl alcohol] the CC50 at 24 h was over 90 µM.

Same assay, conditions: rat, gh3-tre-luc cells, AC50 (uM) modified / 1000, Tox21_110001=Tox21_200991; viability, 1 nM T3 present, 24 h
N#C/C(N)=C(/N)C#N [Diaminomaleonitrile] showed a CC50 at 24 h of over 90 µM.

Same assay, conditions: rat, gh3-tre-luc cells, AC50 (uM) modified / 1000, Tox21_110001=Tox21_201656; viability, 1 nM T3 present, 24 h
In the case of O=C1C(Cl)=C(Cl)C(=O)C(Cl)=C1Cl [Chloranil], the CC50 at 24 h is reported as 12.7 µM.

Same assay, conditions: rat, gh3-tre-luc cells, AC50 (uM) modified / 1000, Tox21_110001=Tox21_201841; viability, 1 nM T3 present, 24 h
With CCOP(=S)(OCC)Oc1ccc2c(C)c(Cl)c(=O)oc2c1 [Coumaphos] the CC50 at 24 h was over 90 µM.

Same assay, conditions: rat, gh3-tre-luc cells, AC50 (uM) modified / 1000, Tox21_110001=Tox21_202980; viability, 1 nM T3 present, 24 h
In the case of CC(C)(C)c1ccccc1OP(=O)(Oc1ccccc1)Oc1ccccc1 [tert-Butylphenyl diphenyl phosphate], the CC50 at 24 h is reported as over 90 µM.

Same assay, conditions: rat, gh3-tre-luc cells, AC50 (uM) modified / 1000, Tox21_110001=Tox21_300608; viability, 1 nM T3 present, 24 h
With O=C(O)C(F)(F)C(F)(F)C(F)(F)C(F)(F)C(F)(F)C(F)(F)C(F)(F)C(F)(F)C(F)(F)F [Perfluorodecanoic acid] the CC50 at 24 h was over 90 µM.

Same assay, conditions: rat, gh3-tre-luc cells, AC50 (uM) modified / 1000, Tox21_110001=Tox21_301580; viability, 1 nM T3 present, 24 h
With CCOP(=S)(OCC)O/N=C(\C#N)c1ccccc1 [Phoxim] the CC50 at 24 h was over 90 µM.

Same assay, conditions: rat, gh3-tre-luc cells, AC50 (uM) modified / 1000, Tox21_110001=Tox21_303021; viability, 1 nM T3 present, 24 h
Compound O=C1C(Cl)=C(Cl)C(=O)C(Cl)=C1Cl [Chloranil] has a CC50 at 24 h of 20.3 µM.
